Experiments:
[1] = test system: TAA-induced hepatic fibrosis rats; assay: Assessment of liver function (plasma ALT and AST) in TAA-induced hepatic fibrosis rats; assay type: in vivo, rat; details: mean ± SEM, n=8
Method: The protocol for this study was approved by the King Abdulaziz University Research Ethics Committee and adhered to the international guidelines for the Care and Use of Laboratory Animals. Adult Sprague-Dawley male rats weighing 200-250 g were obtained from King Fahd Research Center and housed in cages at 20-22° C. room temperature in a 12 h light-dark cycle. After one week of acclimatization, rats were used in the experiment. Food and water were available ad libitum. Rats were given freshly prepared TAA (0.9% w/v in saline solution, 200 mg/kg, ip) twice weekly for eight weeks. A normal control (NC) group of rats (n=8) received injections of the vehicle twice weekly for eight weeks. The TAA-treated rats were randomly assigned to groups (n=8), including a test group for each dosage of a free drug (not encapsulated in ZMS), each dosage of zeinmersomes encapsulating the drug, and a positive control group (PC) having hepatic fibrosis but receiving a vehicle-only treatment instead of a drug treatment. Five groups of rats (n=8) were given freshly prepared TAA (0.9% w/v in saline solution, 200 mg/kg, ip) twice weekly for eight weeks and a normal control (NC) group received vehicle injections, as described in Example 4. The five TAA groups included a positive control group (PC, untreated) and four groups treated with low and high doses (2 and 4 mg/kg/day) of OM as raw drug (OL & OH, respectively) and the same low and high doses (2 and 4 mg/kg/day) of OM formulated as zeinmersomes (OLZMS & OHZMS, respectively). The OM standard drug was suspended in distilled water containing 0.25% w/v carboxymethyl cellulose. The doses were given by oral gavage once daily for two months. […] At the end of treatment duration, blood samples were withdrawn from the retro-orbital plexus of the rats under light ether anesthesia. Plasma was separated and kept at −80° C. until analysis. Then, the rats were sacrificed by cervical dislocation under ether anesthesia. Liver and duodenum were isolated and parts of each were kept in 10% formalin-saline for histopathological examination. Other portions of liver tissue were homogenized. The plasma levels of ALT and AST and the homogenate levels of IL-6, reduced glutathione (GSH), TNF-α, malondialdehyde (MDA), and protein content were measured using ELISA kits (MyBioSource, Inc. CA, USA). In addition, the concentrations of olmesartan in plasma and liver homogenate were measured by HPLC/MS. Data are expressed as mean±SEM Comparisons between different groups were carried out using one-way analysis of variance (ANOVA) followed by Bonferroni test for multiple comparisons. […] The levels of ALT and AST were measured by using ELISA commercially available kits according to the manufacturer's protocol.

[2] = cited from earlier work
[3] = test system: fructose-fed rats; details: 0.1 mg/kg/day; cited from earlier work
[4] = biological target: T1, AT1 receptor (Homo sapiens, UniProt P30556); details: cited from earlier work
T1 sequence (P30556 1-359): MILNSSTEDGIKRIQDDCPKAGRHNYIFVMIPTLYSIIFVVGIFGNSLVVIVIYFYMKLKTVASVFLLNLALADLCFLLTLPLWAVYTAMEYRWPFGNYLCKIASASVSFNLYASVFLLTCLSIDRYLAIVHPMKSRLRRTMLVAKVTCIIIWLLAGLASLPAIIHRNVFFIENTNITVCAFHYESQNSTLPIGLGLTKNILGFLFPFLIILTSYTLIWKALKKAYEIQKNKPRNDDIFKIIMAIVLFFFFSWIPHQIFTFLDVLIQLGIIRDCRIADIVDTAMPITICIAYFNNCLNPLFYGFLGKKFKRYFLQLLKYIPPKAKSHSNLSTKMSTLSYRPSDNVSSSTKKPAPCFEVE

[5] = biological target: T2, AT2 receptors (Homo sapiens, UniProt P50052); details: cited from earlier work
T2 sequence (P50052 1-363): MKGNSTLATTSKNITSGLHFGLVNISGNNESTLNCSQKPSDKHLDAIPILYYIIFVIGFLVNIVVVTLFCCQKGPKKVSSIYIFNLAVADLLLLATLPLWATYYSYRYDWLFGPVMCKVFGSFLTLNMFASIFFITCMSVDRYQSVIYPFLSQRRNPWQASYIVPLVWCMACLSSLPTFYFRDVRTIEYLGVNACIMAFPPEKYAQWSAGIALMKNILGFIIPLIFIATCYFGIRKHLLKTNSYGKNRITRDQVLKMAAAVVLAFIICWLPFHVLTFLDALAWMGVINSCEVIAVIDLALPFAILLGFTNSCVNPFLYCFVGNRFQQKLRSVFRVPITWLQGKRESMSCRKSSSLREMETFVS

[6] = test system: AT4 receptors; details: cited from earlier work
[7] = high dose 4 mg/kg/day oral gavage once daily for two months
[8] = low dose 2 mg/kg/day oral gavage once daily for two months

CCCc1nc(C(C)(C)O)c(C(=O)OCc2oc(=O)oc2C)n1Cc1ccc(-c2ccccc2-c2nnn[nH]2)cc1 [OM, (5-methyl-2-oxo-1,3-dioxol-4-yl)methyl 5-(2-hydroxypropan-2-yl)-2-propyl-3-[[4-[2-(2H-tetrazol-5-yl)phenyl]phenyl]methyl]imidazole-4-carboxylate]
plasma ALT [1, 7]: 81.41 U/L | plasma AST [1, 7]: 169.00 U/L | plasma ALT [1, 8]: 114.88 U/L | plasma AST [1, 8]: 198.32 U/L | drug accumulation ([2]; OM once daily for 10 days): did not result in drug accumulation | dose at which safe and well tolerated ([2]; Schwocho et al. 2001): up to 160 mg/day | time for plasma olmesartan to approach steady state ([2]; treatment with OM): 5 days | TNF-α level [3]: reduced | cAMP level in the soleus muscle [3]: increased | AT1 receptor blockade [4]: competitive and selective AT1 receptor blocker | antagonistic effects on the AT2 receptors [5]: almost no antagonistic effects | antagonistic effects on the AT4 receptors [6]: almost no antagonistic effects

— patent US10905651B1, “Zeinmersome nanocarriers for drug delivery to the liver” (King Abdulaziz University, priority 2020, dated 2021)
